In patent US8796313B2, “Substituted dihydroisoindolones as allosteric modulators of glucokinase” (Janssen Pharmaceutica N.V., priority 2005, dated 2014):

Molecular target: T1, human pancreas Glucokinase (GK) (Homo sapiens, UniProt P35557)
T1 construct: His6; made in house; host or cells: Escherichia coli
T1 sequence (P35557 1-465): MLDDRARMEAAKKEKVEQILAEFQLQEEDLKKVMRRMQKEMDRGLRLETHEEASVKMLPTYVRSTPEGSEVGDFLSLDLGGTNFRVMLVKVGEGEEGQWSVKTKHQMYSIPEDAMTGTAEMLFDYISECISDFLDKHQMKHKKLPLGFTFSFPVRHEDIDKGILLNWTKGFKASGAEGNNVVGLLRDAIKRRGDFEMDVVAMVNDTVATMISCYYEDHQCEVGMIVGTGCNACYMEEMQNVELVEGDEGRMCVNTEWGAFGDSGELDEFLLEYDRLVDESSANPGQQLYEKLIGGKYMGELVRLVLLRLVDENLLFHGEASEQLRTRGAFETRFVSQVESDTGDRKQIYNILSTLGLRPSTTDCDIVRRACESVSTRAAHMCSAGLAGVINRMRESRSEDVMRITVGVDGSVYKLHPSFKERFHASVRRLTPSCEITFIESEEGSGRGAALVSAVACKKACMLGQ
Assay: Glucokinase enzyme assay, pancreas GK
Assay type: biochemical
Conditions: for EC50: concentration that produces 50% activation above vehicle control; for EC100%: concentration that produces 100% activation above vehicle control; for activation at 50 µM: increase in GK activity above vehicle control, compound 50 μM, 12 mM glucose; for % Activation @ 5 μM: cell states @ 5 μM instead of the head's 50 μM
Description: An enzymatic Glucokinase (GK) assay using purified recombinant human liver/pancreas enzyme was used to evaluate the effects of potential small molecule modulators.
In this assay, GK catalyzes glucose phosphorylation in the presence of ATP. The product of this reaction, glucose-6-phosphate, was then oxidized by an excess of glucose-6-phosphate dehydrogenase to produce gluconate-6-phosphate with concomitant reduction of nicotinamide adenine dinucleotide (NAD). […] Human GK (Liver/Pancreas) was expressed in Escherichia coli as a (His) 6-tagged fusion protein and was purified by metal chelate affinity chromatography. The assay was performed in a final incubation volume of 80 μl in a 96-well clear low UV absorption plates. The incubation mixture consisted of 25 mM HEPES, 2 mM MgSO4, 1 mM dithiothreotol (DTT), 1 mg/mL bovine serum albumin (BSA), 1 mM ATP, 1 mM NAD, and 12 mM glucose, 10 units per mL glucose-6-phosphate dehydrogenase, and +/−300 ng per mL GK. For determination of the affinity (Km) and Vmax, different concentrations of glucose ranging from 0.5 mM to 40 mM were used in the assay; see Grimsby, J., Sarabu, R.; Grippo, J. F.; et. al. Science 2003, 301, 370-373. […] EC50% (μM) was calculated as the effective concentration of the compound that produces 50% activation above the vehicle control, and EC100% (μM) was calculated as the effective concentration of the compound that produces 100% activation above the vehicle control.

| Structure (SMILES) | EC50 | EC100% | activation at 50 µM | % Activation @ 5 μM |
| --- | --- | --- | --- | --- |
| O=C(CCC1c2c(F)cccc2C(=O)N1Cc1ccc(F)cc1)Nc1ccc(-c2ccccc2)cn1 (stereo not shown) [Compound 31, 3-[7-Fluoro-2-(4-fluoro-benzyl)-3-oxo-2,3-dihydro-1H-isoindol-1-yl]-N-(5-phenyl-pyridin-2-yl)-propionamide] | 1900 nM | 300 µM | 64.1% | – |
| O=C(CCC1c2c(F)cccc2C(=O)N1Cc1ccc(F)cc1)Nc1ccc(Br)cn1 (stereo not shown) [Compound 32, N-(5-Bromo-pyridin-2-yl)-3-[7-fluoro-2-(4-fluoro-benzyl)-3-oxo-2,3-dihydro-1H-isoindol-1-yl]-propionamide] | 13 nM | 0.39 µM | 147% | – |
| O=C(CCC1c2c(F)cccc2C(=O)N1Cc1ccc(F)cc1)Nc1ccc(-c2ccc(F)cc2)cn1 (stereo not shown) [Compound 33, 3-[7-Fluoro-2-(4-fluoro-benzyl)-3-oxo-2,3-dihydro-1H-isoindol-1-yl]-N-[5-(4-fluoro-Phenyl)-pyridin-2-yl]-propionamide] | 488 nM | 4.5 µM | 177% | – |
| NS(=O)(=O)c1ccc(NC(=O)CCC2c3c(F)cccc3C(=O)N2Cc2ccc(F)cc2)nc1 (stereo not shown) [Compound 34, 3-[7-Fluoro-2-(4-fluoro-benzyl)-3-oxo-2,3-dihydro-1H-isoindol-1-yl]-N-(5-sulfamoyl-pyridin-2-yl)-propionamide] | 407 nM | 4.3 µM | 142% | – |
| O=C(CCC1c2cccc(Cl)c2C(=O)N1Cc1ccc(F)cc1)Nc1ccccn1 (stereo not shown) [Compound 35, 3-[4-chloro-2-(4-fluoro-benzyl)-3-oxo-2,3-dihydro-1H-isoindol-1-yl]-N-pyridin-2-yl-propionamide] | 230 nM | 0.75 µM | 306% | – |
| O=C(CCC1c2c(Cl)cccc2C(=O)N1Cc1ccc(F)cc1)Nc1ccccn1 (stereo not shown) [Compound 36, 3-[7-Chloro-2-(4-fluoro-benzyl)-3-oxo-2,3-dihydro-1H-isoindol-1-yl]-N-pyridin-2-yl-propionamide] | 143 nM | 0.411 µM | 342% | – |
| CC(=O)c1ccc(NC(=O)CCC2c3c(F)cccc3C(=O)N2Cc2ccc(F)cc2)nc1 (stereo not shown) [Compound 37, N-(5-Acetyl-pyridin-2-yl)-3-[7-fluoro-2-(4-fluoro-benzyl)-3-oxo-2,3-dihydro-1H-isoindol-1-yl]-propionamide] | 54 nM | 0.225 µM | 259% | – |
| O=C(CCC1c2cccc(Cl)c2C(=O)N1Cc1ccc(F)cc1)Nc1ccc(Br)cn1 (stereo not shown) [Compound 38, N-(5-Bromo-pyridin-2-yl)-3-[4-chloro-2-(4-fluoro-benzyl)-3-oxo-2,3-dihydro-1H-isoindol-1-yl]-propionamide] | 173 nM | 0.615 µM | 309% | – |
| O=C(CCC1c2c(Cl)ccc(Cl)c2C(=O)N1Cc1ccc(F)cc1)Nc1ccccn1 (stereo not shown) [Compound 39, 3-[4,7-Dichloro-2-(4-fluoro-benzyl)-3-oxo-2,3-dihydro-1H-isoindol-1-yl]-N-pyridin-2-yl-propionamide] | 433 nM | 2.5 µM | 206% | – |
| O=C(CCC1c2c(F)cccc2C(=O)N1Cc1ccc(F)cc1)Nc1cccc[n+]1[O-] (stereo not shown) [Compound 40, 3-[7-Fluoro-2-(4-fluoro-benzyl)-3-oxo-2,3-dihydro-1H-isoindol-1-yl]-N-(1-oxy-pyridin-2-yl)-propionamide] | – | – | 52.3% | – |
| Cc1ccc(NC(=O)CCC2c3c(F)cccc3C(=O)N2Cc2ccc(F)cc2)nc1 (stereo not shown) [Compound 41, 3-[7-Fluoro-2-(4-fluoro-benzyl)-3-oxo-2,3-dihydro-1H-isoindol-1-yl]-N-(5-methyl-pyridin-2-yl)-propionamide] | 54 nM | 0.48 µM | 191% | – |
| O=C(CCC1c2c(F)cccc2C(=O)N1Cc1ccc(-n2cccc2)cc1)Nc1ccc(F)cn1 (stereo not shown) [Compound 42, 3-[7-Fluoro-3-oxo-2-(4-pyrol-1-yl-benzyl)-2,3-dihydro-1H-isoindol-1-yl]-N-(5-fluoro-pyridin-2-yl)-propionamide] | 182 nM | 1.7 µM | 168% | – |

Second part, the molecule after the results:

| EC50 | EC100% | activation at 50 µM | % Activation @ 5 μM | Structure (SMILES) |
| --- | --- | --- | --- | --- |
| 629 nM | 5.2 µM | 152% | – | O=C(CCC1c2c(F)cccc2C(=O)N1Cc1ccc(F)cc1)Nc1ccc(Cl)nn1 (stereo not shown) [Compound 43, N-(6-Chloro-pyridazin-3-yl)-3-[7-fluoro-2-(4-fluoro-benzyl)-3-oxo-2,3-dihydro-1H-isoindol-1-yl]-Propionamide] |
| 71 nM | 0.375 µM | – | 168 @ 5 μM % | O=C(CCC1c2c(F)cccc2C(=O)N1Cc1ccc(F)cc1)Nc1ccc(Cl)cn1 (stereo not shown) [Compound 44, N-(5-Chloro-pyridin-2-yl)-3-[7-fluoro-2-(4-fluoro-benzyl)-3-oxo-2,3-dihydro-1H-isoindol-1-yl]-propionamide] |
| 125 nM | 0.813 µM | – | 138 @ 5 μM % | CCOC(=O)/C=C/c1ccc(NC(=O)CCC2c3c(F)cccc3C(=O)N2Cc2ccc(F)cc2)nc1 (stereo not shown) [Compound 45, 3-(6-{3-[7-Fluoro-2-(4-fluoro-benzyl)-3-oxo-2,3-dihydro-1H-isoindol-1-yl]-propionylamino}-pyridin-3-yl)-acrylic acid ethyl ester] |
| 219 nM | 1.2 µM | – | 133 @ 5 μM % | O=C(CCC1c2c(F)cccc2C(=O)N1Cc1ccc(F)cc1)Nc1ccc(C(=O)OCc2ccccc2)cn1 (stereo not shown) [Compound 46, 6-{3-[7-Fluoro-2-(4-fluoro-benzyl)-3-oxo-2,3-dihydro-1H-isoindol-1-yl]-propionylamino}-nicotinic acid benzyl ester] |
| 420 nM | 15 µM | 114% | – | N#Cc1ccc(NC(=O)CCC2c3c(F)cccc3C(=O)N2Cc2ccc(F)cc2)nc1 (stereo not shown) [Compound 47, N-(5-Cyano-pyridin-2-yl)-3-[7-fluoro-2-(4-fluoro-benzyl)-3-oxo-2,3-dihydro-1H-isoindol-1-yl]-propionamide] |
| 17000 nM | – | 62.8% | – | CS(=O)(=O)c1ccc(NC(=O)CCC2c3c(F)cccc3C(=O)N2Cc2ccc(F)cc2)nc1 (stereo not shown) [Compound 48, 3-[7-Fluoro-2-(4-fluoro-benzyl)-3-oxo-2,3-dihydro-1H-isoindol-1-yl]-N-(5-methanesulfonyl-pyridin-2-yl)-propionamide] |
| 60 nM | 0.34 µM | 212% | – | CN(C)c1ccc(CN2C(=O)c3cccc(F)c3C2CCC(=O)Nc2ccc(C(=O)O)cn2)cc1 (stereo not shown) [Compound 49, 6-{3-[2-(4-Dimethylamino-benzyl)-7-fluoro-3-oxo-2,3-dihydro-1H-isoindol-1-yl]-propionylamino}-nicotinic acid] |
| – | – | 38.6% | – | COC(=O)c1ccc(NC(=O)CC[C@@H]2c3c(F)cccc3C(=O)N2Cc2ccc(F)cc2)nc1 [Compound 50, (R)-6-{3-[7-Fluoro-2-(4-fluoro-benzyl)-3-oxo-2,3-dihydro-1H-isoindol-1-yl]-propionylamino}-nicotinic acid methyl ester] |
| 8.9 nM | 0.082 µM | 223% | – | COC(=O)c1ccc(NC(=O)CC[C@H]2c3c(F)cccc3C(=O)N2Cc2ccc(F)cc2)nc1 [Compound 51, (S)-6-{3-[7-Fluoro-2-(4-fluoro-benzyl)-3-oxo-2,3-dihydro-1H-isoindol-1-yl]-propionylamino}-nicotinic acid methyl ester] |
